Reference: publication PMC5218480 (PLoS ONE, 2017)

Test system: MV-4-11 cells
Assay: Gene expression microarray analysis (Affymetrix PrimeView) and GSEA
Format: cell-based, human
Design: RFU PODN (11730768_x_at) / Fold change /veh PODN (11730768_x_at) / RFU LINC00158 (11744669_a_at) / Fold change /veh LINC00158 (11744669_a_at) / RFU DUSP10 (11751237_a_at) / Fold change /veh DUSP10 (11751237_a_at) / RFU ID3 (11757404_x_at) / Fold change /veh ID3 (11757404_x_at) / RFU PLEKHG5 (11737974_s_at) / Fold change /veh PLEKHG5 (11737974_s_at) / RFU LRRC4B (11730491_at) / Fold change /veh LRRC4B (11730491_at) / RFU GIMAP4 (11747438_a_at) / Fold change /veh GIMAP4 (11747438_a_at) / RFU KRT8 (11758183_x_at) / Fold change /veh KRT8 (11758183_x_at) / RFU CNN1 (11734310_a_at) / Fold change /veh CNN1 (11734310_a_at) / RFU VPS37D (11726825_at) / Fold change /veh VPS37D (11726825_at) / RFU C10orf10 (11716522_x_at) / Fold change /veh C10orf10 (11716522_x_at) / RFU KIR2DL2 /// KIR2DL4 /// KIR2DL5A /// KIR2DL5B /// KIR2DS1 /// KIR2DS2 /// KIR2DS3 /// KIR2DS4 /// KIR3DL3 /// KIR3DL3 /// KIR3DS1 (11738374_at) / Fold change /veh KIR2DL2 /// KIR2DL4 /// KIR2DL5A /// KIR2DL5B /// KIR2DS1 /// KIR2DS2 /// KIR2DS3 /// KIR2DS4 /// KIR3DL3 /// KIR3DL3 /// KIR3DS1 (11738374_at) / RFU C1QL1 (11718748_at) / Fold change /veh C1QL1 (11718748_at) / RFU TMPRSS4 (11747572_a_at) / Fold change /veh TMPRSS4 (11747572_a_at) / RFU HAMP (11756126_x_at) / Fold change /veh HAMP (11756126_x_at) / RFU RNFT2 (11725882_a_at) / Fold change /veh RNFT2 (11725882_a_at) / RFU NR4A2 (11747474_a_at) / Fold change /veh NR4A2 (11747474_a_at) / RFU ABCC12 (11746883_a_at) / Fold change /veh ABCC12 (11746883_a_at) / RFU TMEM136 (11760407_x_at) / Fold change /veh TMEM136 (11760407_x_at) / RFU CLDN22 /// WWC2 (11732394_at) / Fold change /veh CLDN22 /// WWC2 (11732394_at) / RFU HLA-DPB1 (11760878_x_at) / Fold change /veh HLA-DPB1 (11760878_x_at) / RFU SPINT1 (11716480_a_at) / Fold change /veh SPINT1 (11716480_a_at) / RFU GAP43 (11754022_s_at) / Fold change /veh GAP43 (11754022_s_at) / RFU A4GNT (11735810_at) / Fold change /veh A4GNT (11735810_at) / RFU PRB3 (11715151_x_at) / Fold change /veh PRB3 (11715151_x_at) / RFU TUBB4B (11761932_at) / Fold change /veh TUBB4B (11761932_at) / RFU CAPN14 (11732068_a_at) / Fold change /veh CAPN14 (11732068_a_at) / RFU TMCC2 (11721928_a_at) / Fold change /veh TMCC2 (11721928_a_at) / RFU IRGQ (11745062_a_at) / Fold change /veh IRGQ (11745062_a_at) / RFU FAM174B (11720279_a_at) / Fold change /veh FAM174B (11720279_a_at) / RFU TMPRSS4 (11748680_a_at) / Fold change /veh TMPRSS4 (11748680_a_at) / RFU FAM212B (11763350_a_at) / Fold change /veh FAM212B (11763350_a_at) / RFU PLEKHG5 (11743358_a_at) / Fold change /veh PLEKHG5 (11743358_a_at) / RFU ZSCAN30 (11745921_a_at) / Fold change /veh ZSCAN30 (11745921_a_at) / RFU CMKLR1 (11741424_a_at) / Fold change /veh CMKLR1 (11741424_a_at) / RFU LOC101060620 /// MAPK8IP1 (11723275_at) / Fold change /veh LOC101060620 /// MAPK8IP1 (11723275_at) / RFU SPTSSB (11747773_x_at) / Fold change /veh SPTSSB (11747773_x_at) / RFU PRSS12 (11739890_at) / Fold change /veh PRSS12 (11739890_at) / RFU BIN1 (11741810_x_at) / Fold change /veh BIN1 (11741810_x_at) / RFU WNT11 (11732464_a_at) / Fold change /veh WNT11 (11732464_a_at) / RFU C10orf10 (11716521_a_at) / Fold change /veh C10orf10 (11716521_a_at) / RFU C5orf56 (11738089_at) / Fold change /veh C5orf56 (11738089_at) / RFU CYB561 (11721691_x_at) / Fold change /veh CYB561 (11721691_x_at) / RFU ANKRD19P (11752326_a_at) / Fold change /veh ANKRD19P (11752326_a_at) / RFU OR2T12 /// OR2T33 /// OR2T8 (11738714_s_at) / Fold change /veh OR2T12 /// OR2T33 /// OR2T8 (11738714_s_at) / RFU VCAN (11748164_a_at) / Fold change /veh VCAN (11748164_a_at) / RFU JSRP1 (11732532_at) / Fold change /veh JSRP1 (11732532_at) / RFU KRTAP10-11 (11738290_x_at) / Fold change /veh KRTAP10-11 (11738290_x_at) / RFU MYO3A (11730013_a_at) / Fold change /veh MYO3A (11730013_a_at) / RFU EBF3 (11725865_a_at) / Fold change /veh EBF3 (11725865_a_at) / RFU CAMK2N1 (11719241_x_at) / Fold change /veh CAMK2N1 (11719241_x_at) / RFU C5orf56 (11738088_a_at) / Fold change /veh C5orf56 (11738088_a_at) / RFU OLFML3 (11715873_a_at) / Fold change /veh OLFML3 (11715873_a_at) / RFU LOC100653217 /// NTM (11731650_a_at) / Fold change /veh LOC100653217 /// NTM (11731650_a_at) / RFU MAPK11 (11762145_a_at) / Fold change /veh MAPK11 (11762145_a_at) / RFU FIZ1 (11724087_x_at) / Fold change /veh FIZ1 (11724087_x_at) / RFU OASL (11726364_x_at) / Fold change /veh OASL (11726364_x_at) / RFU SOX15 (11748057_x_at) / Fold change /veh SOX15 (11748057_x_at) / RFU CD79A (11719716_a_at) / Fold change /veh CD79A (11719716_a_at) / RFU HIST1H1D (11736915_at) / Fold change /veh HIST1H1D (11736915_at) / RFU CASKIN2 (11723855_a_at) / Fold change /veh CASKIN2 (11723855_a_at) / RFU LOC730098 (11760151_x_at) / Fold change /veh LOC730098 (11760151_x_at) / RFU OR4N2 (11742367_at) / Fold change /veh OR4N2 (11742367_at) / RFU PRRT2 (11749266_a_at) / Fold change /veh PRRT2 (11749266_a_at) / RFU SNX32 (11753110_a_at) / Fold change /veh SNX32 (11753110_a_at) / RFU CDHR5 (11726645_a_at) / Fold change /veh CDHR5 (11726645_a_at) / RFU RCAN1 (11760418_a_at) / Fold change /veh RCAN1 (11760418_a_at) / RFU FAM167A (11723789_a_at) / Fold change /veh FAM167A (11723789_a_at) / RFU FAM26E (11764081_at) / Fold change /veh FAM26E (11764081_at) / RFU ISYNA1 (11749810_s_at) / Fold change /veh ISYNA1 (11749810_s_at) / RFU ACY1 (11761880_at) / Fold change /veh ACY1 (11761880_at) / RFU 11764098_at / Fold change /veh 11764098_at / RFU SAMD14 (11745864_x_at) / Fold change /veh SAMD14 (11745864_x_at) / RFU NPB (11741838_a_at) / Fold change /veh NPB (11741838_a_at) / RFU TMPRSS6 (11731388_a_at) / Fold change /veh TMPRSS6 (11731388_a_at) / RFU KRTAP10-2 (11738614_at) / Fold change /veh KRTAP10-2 (11738614_at) / RFU ARHGAP8 /// PRR5-ARHGAP8 (11727945_x_at) / Fold change /veh ARHGAP8 /// PRR5-ARHGAP8 (11727945_x_at) / RFU KRTAP5-7 /// NADSYN1 (11734609_at) / Fold change /veh KRTAP5-7 /// NADSYN1 (11734609_at) / RFU RASL12 (11751679_a_at) / Fold change /veh RASL12 (11751679_a_at) / RFU CDKN2B (11736163_a_at) / Fold change /veh CDKN2B (11736163_a_at) / RFU PRF1 (11729649_at) / Fold change /veh PRF1 (11729649_at) / RFU, ZNF638 /// ZNF638-IT1 / Fold change vs veh, ZNF638 /// ZNF638-IT1 / RFU, PANK3 / Fold change vs veh, PANK3 / RFU, SH3YL1 / Fold change vs veh, SH3YL1 / RFU, ZEB2 / Fold change vs veh, ZEB2 / RFU, NRIP1 / Fold change vs veh, NRIP1 / RFU, PTTG1IP / Fold change vs veh, PTTG1IP / RFU, CAPN2 / Fold change vs veh, CAPN2 / RFU, MED14 / Fold change vs veh, MED14 / RFU, SNORA58 / Fold change vs veh, SNORA58 / RFU, C1orf63 / Fold change vs veh, C1orf63 / RFU, LRRFIP1 / Fold change vs veh, LRRFIP1 / RFU, NDUFAF7 / Fold change vs veh, NDUFAF7 / RFU, SLC12A2 / Fold change vs veh, SLC12A2 / RFU, IBTK / Fold change vs veh, IBTK / RFU, ESF1 / Fold change vs veh, ESF1 / Fold change vs veh, TMEM50B / RFU, TAOK1 / Fold change vs veh, TAOK1 / RFU, ACBD3 / Fold change vs veh, ACBD3 / RFU, TMA16 / Fold change vs veh, TMA16 / RFU, RWDD3 / Fold change vs veh, RWDD3 / RFU, BCAT1 / Fold change vs veh, BCAT1 / RFU, EDEM3 / Fold change vs veh, EDEM3 / RFU, TMEM33 / Fold change vs veh, TMEM33 / RFU, WDR75 / Fold change vs veh, WDR75 / RFU, AHCTF1 / Fold change vs veh, AHCTF1 / RFU, TFRC / Fold change vs veh, TFRC / RFU, ZDHHC17 / Fold change vs veh, ZDHHC17 / RFU, NOM1 / Fold change vs veh, NOM1 / RFU, ARL8B / Fold change vs veh, ARL8B / RFU, ZBTB11 / Fold change vs veh, ZBTB11 / RFU, TAMM41 / Fold change vs veh, TAMM41 / RFU, KIAA1704 /// LOC100996395 / Fold change vs veh, KIAA1704 /// LOC100996395 / RFU, ING1 / Fold change vs veh, ING1 / RFU, TRMT61B / Fold change vs veh, TRMT61B / RFU, FUBP3 / Fold change vs veh, FUBP3 / RFU, TP53 / Fold change vs veh, TP53 / RFU, TNKS2 / Fold change vs veh, TNKS2 / RFU, ZFP14 / Fold change vs veh, ZFP14 / RFU, ACTR2 / Fold change vs veh, ACTR2 / RFU, PPP3R1 / Fold change vs veh, PPP3R1 / RFU, PIK3R1 / Fold change vs veh, PIK3R1 / RFU, HNRNPA1 / Fold change vs veh, HNRNPA1 / RFU, RNF170 / Fold change vs veh, RNF170 / RFU, ZNF28 / Fold change vs veh, ZNF28 / RFU, RNGTT / Fold change vs veh, RNGTT / RFU, OGT / Fold change vs veh, OGT / RFU, BRD1 / Fold change vs veh, BRD1 / RFU, MARS / Fold change vs veh, MARS / RFU, ZNF655 / Fold change vs veh, ZNF655 / RFU, FAHD1 / Fold change vs veh, FAHD1 / RFU, BDP1 / Fold change vs veh, BDP1 / RFU, LRRCC1 / Fold change vs veh, LRRCC1 / RFU, ARID1A / Fold change vs veh, ARID1A / RFU, ZNF146 / Fold change vs veh, ZNF146 / RFU, ZNF330 / Fold change vs veh, ZNF330 / RFU, GPN3 / Fold change vs veh, GPN3 / RFU, C9orf123 / Fold change vs veh, C9orf123 / RFU, N4BP2L2 / Fold change vs veh, N4BP2L2 / RFU, ARFIP1 / Fold change vs veh, ARFIP1 / RFU, FAM179B / Fold change vs veh, FAM179B / RFU, BCL10 / Fold change vs veh, BCL10 / RFU, UHRF1BP1L / Fold change vs veh, UHRF1BP1L / RFU, BET1 / Fold change vs veh, BET1 / RFU, CNOT2 / Fold change vs veh, CNOT2 / RFU, ZNF268 / Fold change vs veh, ZNF268 / Fold change vs veh, ZNF507 / RFU, DGCR2 / Fold change vs veh, DGCR2 / RFU, WDSUB1 / Fold change vs veh, WDSUB1 / Fold change vs veh, HSP90B1 /// MIR3652 / RFU, ADSS / Fold change vs veh, ADSS / RFU, GK / Fold change vs veh, GK / RFU, ZNF148 / Fold change vs veh, ZNF148 / RFU, TAF9 / Fold change vs veh, TAF9 / RFU, SLC1A5 / Fold change vs veh, SLC1A5 / RFU, SLMO2 / Fold change vs veh, SLMO2 / RFU, ABCC4 / Fold change vs veh, ABCC4 / RFU, LOC101060439 /// RAP1B / Fold change vs veh, LOC101060439 /// RAP1B / RFU, RFX7 / Fold change vs veh, RFX7 / RFU, GTPBP10 / Fold change vs veh, GTPBP10 / RFU, CNEP1R1 / Fold change vs veh, CNEP1R1 / RFU, BIVM-ERCC5 /// ERCC5 / Fold change vs veh, BIVM-ERCC5 /// ERCC5 / RFU, ILF3 / Fold change vs veh, ILF3 / RFU 11762660_at / Fold change /veh 11762660_at / RFU VCAN (11757783_s_at) / Fold change /veh VCAN (11757783_s_at) / RFU DDX43 (11728927_at) / Fold change /veh DDX43 (11728927_at) / RFU KRT8 (11758188_x_at) / Fold change /veh KRT8 (11758188_x_at) / RFU NKD1 (11759106_at) / Fold change /veh NKD1 (11759106_at) / RFU SRD5A1 (11742802_a_at) / Fold change /veh SRD5A1 (11742802_a_at) / RFU TPSAB1 /// TPSB2 (11721975_s_at) / Fold change /veh TPSAB1 /// TPSB2 (11721975_s_at) / RFU GSTM3 (11746129_a_at) / Fold change /veh GSTM3 (11746129_a_at) / RFU IL23R (11737362_x_at) / Fold change /veh IL23R (11737362_x_at) / RFU TMEM51 (11727254_a_at) / Fold change /veh TMEM51 (11727254_a_at) / RFU PIWIL2 (11732686_x_at) / Fold change /veh PIWIL2 (11732686_x_at) / RFU ORM1 (11744905_x_at) / Fold change /veh ORM1 (11744905_x_at) / RFU CCDC152 (11743942_at) / Fold change /veh CCDC152 (11743942_at) / RFU ECM1 (11717891_a_at) / Fold change /veh ECM1 (11717891_a_at) / RFU IL23R (11748794_a_at) / Fold change /veh IL23R (11748794_a_at) / RFU TNFAIP8L3 (11732012_x_at) / Fold change /veh TNFAIP8L3 (11732012_x_at) / RFU MBOAT4 (11741988_at) / Fold change /veh MBOAT4 (11741988_at) / RFU 11764193_at / Fold change /veh 11764193_at / RFU TMEM53 (11763286_at) / Fold change /veh TMEM53 (11763286_at) / RFU MAGEB2 (11727129_at) / Fold change /veh MAGEB2 (11727129_at) / RFU TMEM200A (11744735_a_at) / Fold change /veh TMEM200A (11744735_a_at) / RFU CCDC152 (11751479_a_at) / Fold change /veh CCDC152 (11751479_a_at) / RFU FAM211A (11726209_a_at) / Fold change /veh FAM211A (11726209_a_at) / RFU RGS16 (11746705_a_at) / Fold change /veh RGS16 (11746705_a_at) / RFU VCAN (11755009_s_at) / Fold change /veh VCAN (11755009_s_at) / RFU RHOB (11743442_s_at) / Fold change /veh RHOB (11743442_s_at) / RFU RGS16 (11720943_a_at) / Fold change /veh RGS16 (11720943_a_at) / RFU RGS16 (11720944_at) / Fold change /veh RGS16 (11720944_at) / RFU, VPS4B / Fold change vs veh, VPS4B / RFU, CREB1 / Fold change vs veh, CREB1 / RFU, DNAJC13 / Fold change vs veh, DNAJC13 / RFU, GNAQ / Fold change vs veh, GNAQ / RFU, CDK5R1 / Fold change vs veh, CDK5R1 / RFU, ZRANB3 / Fold change vs veh, ZRANB3 / RFU, CUL4A / Fold change vs veh, CUL4A / RFU, CCNY / Fold change vs veh, CCNY / RFU, UFL1 / Fold change vs veh, UFL1 / RFU, COG3 / Fold change vs veh, COG3 / RFU, DIAPH2 / Fold change vs veh, DIAPH2 / RFU, SKA2 / Fold change vs veh, SKA2 / RFU, AFF3 / Fold change vs veh, AFF3 / RFU, LMF1 / Fold change vs veh, LMF1 / RFU, IPO11 / Fold change vs veh, IPO11 / RFU, DFFB / Fold change vs veh, DFFB / RFU, FOXP1 / Fold change vs veh, FOXP1 / RFU, CARD8 / Fold change vs veh, CARD8 / RFU, STRN3 / Fold change vs veh, STRN3 / RFU, ADK / Fold change vs veh, ADK / RFU, RASSF2 / Fold change vs veh, RASSF2 / RFU, WIPF1 / Fold change vs veh, WIPF1 / RFU, LARP1B / Fold change vs veh, LARP1B / RFU, RASA1 / Fold change vs veh, RASA1 / RFU, RB1 / Fold change vs veh, RB1 / RFU, PPFIA1 / Fold change vs veh, PPFIA1 / RFU, MAT2A / Fold change vs veh, MAT2A / RFU, CCT5 / Fold change vs veh, CCT5 / RFU, WDR92 / Fold change vs veh, WDR92 / RFU, CUX1 / Fold change vs veh, CUX1 / RFU, TTC7A / Fold change vs veh, TTC7A / RFU, TMEM135 / Fold change vs veh, TMEM135 / RFU, DEPTOR / Fold change vs veh, DEPTOR / RFU, CPM / Fold change vs veh, CPM / RFU, DNAJB6 / Fold change vs veh, DNAJB6 / RFU, CACNA2D3 / Fold change vs veh, CACNA2D3 / RFU, DTX4 / Fold change vs veh, DTX4 / RFU, TFCP2 / Fold change vs veh, TFCP2 / RFU, GMCL1 /// GMCL1P1 / Fold change vs veh, GMCL1 /// GMCL1P1 / RFU, AEBP2 / Fold change vs veh, AEBP2 / RFU, SNHG1 /// SNORD22 /// SNORD25 /// SNORD26 /// SNORD27 /// SNORD28 /// SNORD29 /// SNORD31 / Fold change vs veh, SNHG1 /// SNORD22 /// SNORD25 /// SNORD26 /// SNORD27 /// SNORD28 /// SNORD29 /// SNORD31 / Fold change (Aza/veh), C12orf56 (ProbeSet 11735607_a_at) / Fold change (ACY-1035/veh), C12orf56 (ProbeSet 11735607_a_at) / Fold change (Aza/veh), FGFR1OP (ProbeSet 11751329_s_at) / Fold change (ACY-1035/veh), FGFR1OP (ProbeSet 11751329_s_at) / Fold change (Aza/veh), VPS36 (ProbeSet 11739960_a_at) / Fold change (ACY-1035/veh), VPS36 (ProbeSet 11739960_a_at) / RFU SYPL1 (11715823_x_at) / Fold change /veh SYPL1 (11715823_x_at) / RFU IGFBP7 (11715501_s_at) / Fold change /veh IGFBP7 (11715501_s_at) / RFU REEP3 (11722064_at) / Fold change /veh REEP3 (11722064_at) / RFU IGLL1 (11728026_x_at) / Fold change /veh IGLL1 (11728026_x_at): dose or concentration left out as unconfirmed
Conditions: ProbeSet 11728271_at; LIST B

## Nc1ncn([C@@H]2O[C@H](CO)[C@@H](O)[C@H]2O)c(=O)n1 [azacitidine]
  Fold change vs veh, ZNF330: 0.94
